Measurements from ChEMBL document CHEMBL3046027, “In vitro and in vivo antifungal activity of synthetic pure isothiocyanates against Sclerotinia sclerotiorum” (Pest Manag Sci, 2011).

What was measured:
Sclerotinia sclerotiorum [1] = test: Antifungal activity against Sclerotinia sclerotiorum assessed as inhibition of germination in volatile phase at 418 umol/l measured at 20 degC after 5 days; type: functional; settings: 120 h
Sclerotinia sclerotiorum [2] = test: Fungistatic activity in Sclerotinia sclerotiorum assessed as viability in volatile phase at 418 umol/l measured at 20 degC after 5 days relative to control; type: functional; settings: 120 h, read-out: GI
Sclerotinia sclerotiorum [3] = test: Fungistatic activity in Sclerotinia sclerotiorum assessed as inhibition of carpogenic germination in volatile phase at 84 umol/l measured at 20 degC after 5 days relative to control; type: functional; settings: AT84, 120 h
Sclerotinia sclerotiorum [4] = test: Antifungal activity against Sclerotinia sclerotiorum assessed as inhibition of mycelial growth in volatile phase at 836 umol/l measured at 20 degC after 5 days; type: functional; settings: 120 h, read-out: GI
Sclerotinia sclerotiorum [5] = test: Fungistatic activity in Sclerotinia sclerotiorum assessed as inhibition of mycelial growth in contact phase measured at 20 degC after 5 days; type: functional, organism-based; settings: 120 h
Sclerotinia sclerotiorum [6] = test: Antifungal activity against Sclerotinia sclerotiorum assessed as inhibition of mycelial growth in volatile phase at 585 umol/l measured at 20 degC after 5 days; type: functional; settings: 120 h, read-out: GI
Sclerotinia sclerotiorum [7] = test: Antifungal activity against Sclerotinia sclerotiorum assessed as inhibition of mycelial growth in contact phase at 585 umol/l measured at 20 degC after 5 days; type: functional; settings: 120 h, read-out: GI
Sclerotinia sclerotiorum [8] = test: Antifungal activity against Sclerotinia sclerotiorum assessed as inhibition of germination in volatile phase at 84 umol/l measured at 20 degC after 5 days; type: functional; settings: AT84, 120 h
Sclerotinia sclerotiorum [9] = test: Antifungal activity against Sclerotinia sclerotiorum assessed as inhibition of mycelial growth in volatile phase at 418 umol/l measured at 20 degC after 5 days; type: functional; settings: 120 h, read-out: GI
Sclerotinia sclerotiorum [10] = test: Antifungal activity against Sclerotinia sclerotiorum assessed as inhibition of germination in volatile phase at 42 umol/l measured at 20 degC after 5 days; type: functional; settings: 120 h
Sclerotinia sclerotiorum [11] = test: Fungistatic activity in Sclerotinia sclerotiorum assessed as inhibition of mycelial growth in volatile phase measured at 20 degC after 5 days; type: functional, organism-based; settings: 120 h
Sclerotinia sclerotiorum [12] = test: Antifungal activity against Sclerotinia sclerotiorum assessed as inhibition of mycelial growth in contact phase at 836 umol/l measured at 20 degC after 5 days; type: functional; settings: 120 h, read-out: GI
Sclerotinia sclerotiorum [13] = test: Fungistatic activity in Sclerotinia sclerotiorum assessed as sclerotial viability measured at 20 degC after 5 days; type: functional, organism-based; settings: 120 h
Sclerotinia sclerotiorum [14] = test: Antifungal activity against Sclerotinia sclerotiorum assessed as inhibition of mycelial growth in contact phase at 752 umol/l measured at 20 degC after 5 days; type: functional; settings: 120 h, read-out: GI
Sclerotinia sclerotiorum [15] = test: Fungistatic activity in Sclerotinia sclerotiorum assessed as inhibition of mycelial growth in contact phase at 1672 umol/l measured at 20 degC after 5 days relative to control; type: functional; settings: 120 h, read-out: GI
Sclerotinia sclerotiorum [16] = test: Antifungal activity against Sclerotinia sclerotiorum assessed as inhibition of mycelial growth in volatile phase at 42 umol/l measured at 20 degC after 5 days; type: functional; settings: 120 h, read-out: GI
Sclerotinia sclerotiorum [17] = test: Fungistatic activity in Sclerotinia sclerotiorum assessed as inhibition of carpogenic germination in volatile phase at 42 umol/l measured at 20 degC after 5 days relative to control; type: functional; settings: 120 h
Sclerotinia sclerotiorum [18] = test: Antifungal activity against Sclerotinia sclerotiorum assessed as inhibition of mycelial growth in contact phase at 1672 umol/l measured at 20 degC after 5 days; type: functional; settings: 120 h, read-out: GI
Sclerotinia sclerotiorum [19] = test: Antifungal activity against Sclerotinia sclerotiorum assessed as inhibition of mycelial growth in contact phase at 2508 umol/l measured at 20 degC after 5 days; type: functional; settings: 120 h, read-out: GI
Sclerotinia sclerotiorum [20] = test: Antifungal activity against Sclerotinia sclerotiorum assessed as inhibition of germination in volatile phase at 251 umol/l measured at 20 degC after 5 days; type: functional; settings: 120 h
Sclerotinia sclerotiorum [21] = test: Antifungal activity against Sclerotinia sclerotiorum assessed as inhibition of germination in volatile phase at 836 umol/l measured at 20 degC after 5 days; type: functional; settings: 120 h
Sclerotinia sclerotiorum [22] = test: Fungistatic activity in Sclerotinia sclerotiorum assessed as inhibition of mycelial growth in volatile phase at 836 umol/l measured at 20 degC after 5 days relative to control; type: functional; settings: 120 h, read-out: GI
Sclerotinia sclerotiorum [23] = test: In vivo antifungal Sclerotinia sclerotiorum in Pepper (Capsicum annuum L. cv. Sera Demre) assessed as inhibition of mycelial growth in volatile phase at 168 umol/L measured after 10 to 14 weeks; type: functional
Sclerotinia sclerotiorum [24] = test: Fungitoxic activity in Sclerotinia sclerotiorum assessed as inhibition of mycelial growth in contact phase at 2508 umol/l measured at 20 degC after 5 days relative to control; type: functional; settings: 120 h
Sclerotinia sclerotiorum [25] = test: Fungistatic activity in Sclerotinia sclerotiorum assessed as inhibition of carpogenic germination in volatile phase at 836 umol/l measured at 20 degC after 5 days relative to control; type: functional; settings: 120 h
Sclerotinia sclerotiorum [26] = test: In vivo antifungal Sclerotinia sclerotiorum in Pepper (Capsicum annuum L. cv. Sera Demre) assessed as inhibition of mycelial growth in volatile phase at 84 umol/L measured after 10 to 14 weeks; type: functional
Sclerotinia sclerotiorum [27] = test: Fungistatic activity in Sclerotinia sclerotiorum assessed as inhibition of carpogenic germination in volatile phase at 418 umol/l measured at 20 degC after 5 days relative to control; type: functional; settings: 120 h
Sclerotinia sclerotiorum [28] = test: Antifungal activity against Sclerotinia sclerotiorum assessed as inhibition of mycelial growth in volatile phase at 84 umol/l measured at 20 degC after 5 days; type: functional; settings: 120 h, read-out: GI

S=C=Nc1ccccc1 [PHENYLISOTHIOCYANATE]
inhibition at 418 µM (Sclerotinia sclerotiorum [1]): 100%
inhibition of growth at 418 µM (Sclerotinia sclerotiorum [2]): 100%
inhibition at 84 µM (Sclerotinia sclerotiorum [3]): 52.5%
inhibition of growth at 836 µM (Sclerotinia sclerotiorum [4]): 100%
EC50 (Sclerotinia sclerotiorum [5]): 802 µM
inhibition of growth at 585 µM (Sclerotinia sclerotiorum [6]): 74.2%
inhibition of growth at 585 µM (Sclerotinia sclerotiorum [7]): 5%
inhibition at 84 µM (Sclerotinia sclerotiorum [8]): 13.3%
inhibition of growth at 418 µM (Sclerotinia sclerotiorum [9]): 70%
inhibition at 42 µM (Sclerotinia sclerotiorum [10]): 6.7%
EC50 (Sclerotinia sclerotiorum [11]): 134 µM
inhibition of growth at 836 µM (Sclerotinia sclerotiorum [12]): 65.5%
EC50 (Sclerotinia sclerotiorum [13]): 192 µM
inhibition of growth at 752 µM (Sclerotinia sclerotiorum [14]): 23.7%
inhibition of growth at 1672 µM (Sclerotinia sclerotiorum [15]): 100%
inhibition of growth at 42 µM (Sclerotinia sclerotiorum [16]): 20.8%
inhibition at 42 µM (Sclerotinia sclerotiorum [17]): 12.5%
inhibition of growth at 1672 µM (Sclerotinia sclerotiorum [18]): 100%
inhibition of growth at 2508 µM (Sclerotinia sclerotiorum [19]): 100%
inhibition at 251 µM (Sclerotinia sclerotiorum [20]): 46.7%
inhibition at 836 µM (Sclerotinia sclerotiorum [21]): 100%
inhibition of growth at 836 µM (Sclerotinia sclerotiorum [22]): 100%
inhibition in vivo at 168 µM (Sclerotinia sclerotiorum [23]): 68.3%
inhibition at 2508 µM (Sclerotinia sclerotiorum [24]): 100%
inhibition at 836 µM (Sclerotinia sclerotiorum [25]): 85%
inhibition in vivo at 84 µM (Sclerotinia sclerotiorum [26]): 61.7%
inhibition at 418 µM (Sclerotinia sclerotiorum [27]): 52.5%
inhibition of growth at 84 µM (Sclerotinia sclerotiorum [28]): 42.8%
